One data set concerns NCI-60 cell line panel. The experiment in a line: NCI-60 single-dose assay, whole panel. Format: cell-based, human. Conditions: summary over the panel. The text has this:
(§1) We first evaluated the cytotoxic activity of tricyclic-pyrrole carboxamides 1–20 using the NCI-60 cell line panel, representing nine different human cancers: leukemia, melanoma, and cancers of the lung, colon, central nervous system (CNS), ovary, kidney, prostate, and breast (the one-dose graph for compounds 1–20 is reported in Supplementary Materials, Figures S43–S62). Compounds 1, 5, 10, 11, 17, and 20 satisfied pre-determined threshold inhibition criteria in a minimum number of cell lines; therefore, they were also tested in the full five-dose assay (Figures S63–S68 in the Supplementary Materials).

Data set [1] relates to ZIKV, strain Brazil/2016/INMI1. The experiment in a line: ZIKV viral yield reduction assay on Huh-7 cells. Particulars: Zika virus. Format: cell-based, Zika virus. The protocol:
We developed a protocol to screen the potential antiviral activity of compounds 1–20 against ZIKV (strain Brazil) on Huh-7 cells, against an H1N1 IAV strain (PR/8/1934) on MDCK cells, and against SARS-CoV-2 (strain Milano) on Vero-TMPRSS. Each compound was tested in duplicate at concentrations of 50 μM, 5 μM, and 0.5 μM. Treatment was applied immediately after infection, and at 24–48 h post-infection, supernatants were collected to assess viral yield, determined as PFU/mL for ZIKV and SARS-CoV-2 or as TCID50/mL for IAV. The test allowed us to evaluate both the antiviral action and the cytotoxicity of each compound, comparing them with reference compounds, such as sofosbuvir for ZIKV and EIDD-1931 for IAV and SARS-CoV-2 (Supplementary Materials, Figures S87–S89).
Viral yield reduction assays for ZIKV and SARS-CoV-2 were performed as previously described by Plicanti. Briefly, 1 × 10^4 Huh-7 cells/well and 1.2 × 10^4 VERO TMPRSS cells/well were infected with ZIKV (MOI 1) or SARS-CoV-2 (MOI 0.05) in a primary 96-well plate for 2 h at 37 °C, 5% CO2. […] Supernatants were collected after 48 h (Huh-7) or 24 h (VERO TMPRSS), diluted 3-fold, and added onto VERO E6 or VERO TMPRSS monolayers, respectively. After 2 h at 37 °C, the inoculum was replaced with 0.75% carboxymethyl cellulose (Merck®, Darmstadt, Germany) in DMEM 2% FBS. After 48–72 h, cells were then fixed with 4% buffered formalin solution (Merck®, Darmstadt, Germany) and stained with 1% crystal violet (Merck®, Darmstadt, Germany). Titres and percentage of inhibition were calculated as follows:
PFU/mL = number of plaques*3^n/vol infection, where n is the dilution where plaques were counted:% inhibition = 100 × (1 − Titre-compound/Titre-untreated control) where Titre-compound and Titre-untreated control are the titres (PFU/mL) obtained on cells treated with compound or DMSO, respectively.
SI was obtained by dividing CC50 by EC50 for each drug/virus/cell line. Compounds with SI values ≥ 10 were active in vitro.

A short description of data set [2]: Cytotoxicity on uninfected Huh-7 cells (WST-8, crystal violet). Particulars: human, uninfected Huh-7 cells.
Method: The toxicity of the compounds at the same concentration was tested on the same cells in parallel.
Cytotoxic effects were evaluated on uninfected cells using the WST-8 assay (Orangu, Cell Guidance Systems, Cambridge, UK) and the crystal violet assay [23]. […] Huh-7, MDCK, and Vero TMPRSS cells were seeded at 1 × 10^4, 1.5 × 10^4, and 1.2 × 10^4 cells/well, respectively, and incubated for 48 h (Huh-7 and MDCK) or 24 h (VERO TMPRSS), following conditions matching those of the corresponding antiviral assays in terms of timing and culture medium. At the end of incubation, the medium was replaced with a 10% WST-8 solution in DMEM and incubated for 1 h at 37 °C. Optical density (OD) was then measured at 450 nm using a Varioskan LUX plate reader (ThermoFisher Scientific, Milano, Italy). Subsequently, cells were fixed with 4% buffered formalin solution (Merck®, Darmstadt, Germany), stained with 1% crystal violet (Merck®, Darmstadt, Germany), and the dye was solubilized in 30% acetic acid for 30 min under shaking. OD was then measured at 595 nm as an additional readout of cell viability. The percentage of viability at each concentration was calculated using the formula:% viability = 100 × (ODcompound/ODuntreated control) where ODcompound and ODuntreated are the OD of the cells treated with compound or DMSO, respectively.
The CC50 value was determined by nonlinear regression analysis on GraphPad Prism 7 (San Diego, CA, USA).
Data set [3] can be described thus: in vitro. Particulars: African green monkey.
Data set [4] concerns MCF-7 (breast cancer cell line). Description: NCI-60 single-dose assay. The data set is classed as cell-based, human. Conditions: Homo sapiens, MCF7, read-out: growth inhibition (GI%) and cytotoxicity (negative values), MCF-7, 10^−5 M.
From the text: as §1

Data set [5] deals with SARS-CoV-2 VR PV10734 (strain Milano). Description: microbe, parasite or virus in culture. The data set is classed as cell-based. Conditions: Severe acute respiratory syndrome coronavirus 2; preliminary screening (50, 5, 0.5 μM), Vero TMPRSS; read-out: SARS‐CoV‐2/Vero TMPRSS EC50.
A short description of data set [6]: in vitro. Conditions: dog.
In data set [7] the test system is HCT-116 (colon cancer cell line). Description: NCI-60 single-dose assay. Conditions: Homo sapiens, HCT-116, read-out: growth inhibition (GI%) and cytotoxicity (negative values). The data set is classed as cell-based, human.
From the text: as §1

The subject of data set [8] is K-562 (leukemia cell line). The experiment in a line: NCI-60 single-dose assay. The data set is classed as cell-based. Conditions: Homo sapiens, K562, read-out: growth inhibition (GI%) and cytotoxicity (negative values).
From the text: as §1

Data set [9] has as its system SK-MEL-5 (melanoma cell line). The experiment in a line: NCI-60 single-dose assay. Format: cell-based, human. Particulars: Homo sapiens, SK-MEL-5, read-out: growth inhibition (GI%) and cytotoxicity (negative values).
From the text: as §1

For data set [10], the system named is CCRF-CEM (leukemia cell line). Description: NCI-60 single-dose assay. The data set is classed as cell-based, human. Conditions: Homo sapiens, read-out: growth inhibition (GI%) and cytotoxicity (negative values).
From the text: as §1

For data set [11], the system named is COLO 205 (colon cancer cell line). Description: NCI-60 single-dose assay. The data set is classed as cell-based, human. Particulars: Homo sapiens, COLO 205, read-out: growth inhibition (GI%) and cytotoxicity (negative values).
From the text: as §1

Data set [12] has as its system HCC-2998 (colon cancer cell line). The experiment in a line: NCI-60 single-dose assay. The data set is classed as cell-based, human. Particulars: Homo sapiens, HCC 2998, read-out: growth inhibition (GI%) and cytotoxicity (negative values).
From the text: as §1

Data set [13] has as its system HCT-15 (colon cancer cell line). Description: NCI-60 single-dose assay. Conditions: Homo sapiens, HCT-15, read-out: growth inhibition (GI%) and cytotoxicity (negative values). The data set is classed as cell-based, human.
From the text: as §1

The subject of data set [14] is HL-60(TB) (leukemia cell line). The experiment in a line: NCI-60 single-dose assay. Conditions: Homo sapiens, HL-60, read-out: growth inhibition (GI%) and cytotoxicity (negative values). Format: cell-based, human.
From the text: as §1

Data set [15] relates to HT29 (colon cancer cell line). The experiment in a line: NCI-60 single-dose assay. Format: cell-based, human. Particulars: Homo sapiens, HT-29, read-out: growth inhibition (GI%) and cytotoxicity (negative values).
From the text: as §1

For data set [16], the system named is KM12 (colon cancer cell line). Description: NCI-60 single-dose assay. Format: cell-based, human. Particulars: Homo sapiens, KM12, read-out: growth inhibition (GI%) and cytotoxicity (negative values).
From the text: as §1

In data set [17] the test system is MOLT-4 (leukemia cell line). The experiment in a line: NCI-60 single-dose assay. Particulars: Homo sapiens, MOLT-4, read-out: growth inhibition (GI%) and cytotoxicity (negative values). Format: cell-based, human.
From the text: as §1

The test system of data set [18] is RPMI-8226 (leukemia cell line). The experiment in a line: NCI-60 single-dose assay. Format: cell-based, human. Particulars: Homo sapiens, RPMI-8226, read-out: growth inhibition (GI%) and cytotoxicity (negative values).
From the text: as §1

The next data set has as its system SR (leukemia cell line). The experiment in a line: NCI-60 single-dose assay. Conditions: Homo sapiens, read-out: growth inhibition (GI%) and cytotoxicity (negative values). The data set is classed as cell-based, human.
From the text: as §1

For data set [19], the system named is SW-620 (colon cancer cell line). The experiment in a line: NCI-60 single-dose assay. Format: cell-based, human. Particulars: Homo sapiens, SW-620, read-out: growth inhibition (GI%) and cytotoxicity (negative values).
From the text: as §1

Setting [20] is: preliminary screening (50, 5, 0.5 μM), Huh-7, read-out: ZIKV/Huh‐7 EC50.
Setting [21] is: Huh-7, read-out: ZIKV/Huh‐7 EC50.

Experimental findings from paper PMC12566046, “Arylpiperazinyl-Benzocycloheptapyrrole-Carboxamides Endowed with Dual Anticancer and Antiviral Activities” (Molecules, 2025) are described below.

The structures appear in SMILES notation. Read-outs that look alike come from different tables or passages of the source.

With `O=C(NCCN1CCN(c2ccccc2)CC1)c1[nH]c2c(c1Cl)CCCc1ccccc1-2` [Compound 2, 3-Chloro-N-(2-(4-phenylpiperazin-1-yl)ethyl)-1,4,5,6-tetrahydrobenzo[6,7]cyclohepta[1,2-b]pyrrole-2-carboxamide], in the data set with NCI-60 cell line panel, the “growth inhibition (GI%) reached against cancer cell lines of the NCI-60 panel” value (shortened to “growth inhibition (GI%) reached”) is reported as below 60%. The EC50 in [1] (setting [20]) came to 43.9 µM. The compound further gave a CC50 at 48 h in data set [2] below 50 µM.
Take `O=C(NCCN1CCN(c2ccc(Cl)cc2)CC1)c1[nH]c2c(c1Cl)CCCc1ccccc1-2` [Compound 3]: the “growth inhibition (GI%) reached” value with NCI-60 cell line panel was below 60%. For the same compound, in data set [1] (setting [20]), the EC50 is 3.24 µM. In “in vitro [3]”, this compound yielded a CC50 at 24 h of 143 µM. The compound further gave a CC50 at 48 h in [2] of 62.6 µM.
A word on the inhibition: it is the change of the read-out against control, counted positive when it falls. For the compound `O=C(NCCN1CCN(c2ccccc2Cl)CC1)c1[nH]c2c(c1Cl)CCCc1ccccc1-2` [Compound 4], in data set [4], the inhibition at 10 µM was determined as 60%. For the same compound, the EC50 in data set [1] (setting [21]) stood at 4.39 µM; in data set [5], 42.5 µM. Besides, the CC50 in “in vitro [6]” came to 14.7 µM. The compound further gave a CC50 at 24 h in “in vitro [3]” of 57.9 µM. For the same compound, in [2], the CC50 at 48 h turned out to be 59.9 µM.
For `COc1cccc(N2CCN(CCNC(=O)c3[nH]c4c(c3Cl)CCCc3ccccc3-4)CC2)c1` [Compound 6], the inhibition at 10 µM in data set [7] came out at 64%. Further, the EC50 in [1] (setting [21]) came out at 3.24 µM. Moreover, the CC50 in “in vitro [6]” was 66 µM. The compound further yielded a CC50 at 24 h in the data set “in vitro [3]” of 121 µM. Further, in data set [2], the CC50 at 48 h came to 53.5 µM.
Take `N#Cc1ccccc1N1CCN(CCNC(=O)c2[nH]c3c(c2Cl)CCCc2ccccc2-3)CC1` [Compound 8, 3-Chloro-N-(2-(4-(2-cyanophenyl)piperazin-1-yl)ethyl)-1,4,5,6-tetrahydrobenzo[6,7]cyclohepta[1,2-b]pyrrole-2-carboxamide]: the inhibition at 10 µM in data set [8] turned out to be 62.4%; in [9] it was 75.3%. Further, the results for the EC50 in data set [1] (setting [20]) and in [5] were 2.87 µM and 58.4 µM, respectively. Moreover, the CC50 in “in vitro [6]” was found to be 119 µM. The compound further had a CC50 at 24 h in the data set “in vitro [3]” of 67.5 µM. For the same compound, the CC50 at 48 h in data set [2] was found to be 50.6 µM.
Turning to `O=C(NCCN1CCN(c2ccc(Cl)c(Cl)c2)CC1)c1[nH]c2c(c1Cl)CCCc1ccccc1-2` [Compound 9], in the data set on NCI-60 cell line panel, the “growth inhibition (GI%) reached” value was below 60%. Also, in data set [1] (setting [20]), the EC50 came out at 3.24 µM. This compound had a CC50 at 24 h in “in vitro [3]” of 67.7 µM. The compound further yielded a CC50 at 48 h in data set [2] of 65.5 µM.
With `COc1cccc(N2CCN(CCNC(=O)c3c(Cl)[nH]c4c3CCCc3ccccc3-4)CC2)c1` [Compound 16], the inhibition at 10 µM in data set [8] was 77.6%; in [10], below 60%; in data set [11], below 60%; in [12], below 60%; in data set [7], below 60%; in data set [13] it was below 60%. Further, the inhibition at 10 µM is below 60% in data set [14]; 74.9% in [15]; below 60% in data set [16]; 73% in data set [4]; below 60% in data set [17]; 60% in [18]. Further, the figures for the inhibition at 10 µM (in data set [9]; with SR (leukemia cell line); in data set [19]) were 88.6%, 73.6% and below 60%, respectively. The CC50 in “in vitro [6]” is 42.9 µM. Also, the CC50 at 24 h in the data set “in vitro [3]” stood at 50.2 µM.
